Data: US7071206B2, “Agents for treating neurodegenerative disorders” (Medivation, Inc., priority 1995, dated 2006)
“And” between values parts separate entries of the source, which are not always exact repeats. Identical values can stand only once. Marks after values point to notes of the source that are not given here.

System: patients suffering from Alzheimer's disease
Assay: Clinical trial of dimebon tablets, inventors' scale (E. E. Bukatina et al.; 0 = absence of a symptom, 4 = greatest manifestation)
Format: in vivo, human
Details: for Degree of irritability, M +/− m: mean of 7 patients having this symptom; for Values of cognitive functions, M +/− m: mean of 7 patients with unprofound dementia; for Marked depressive manifestation, M +/− m: mean of 8 patients with evident depression prior to treatment; for Intensity of headache, M +/− m: mean of 10 patients having this symptom; for number of patients with abatement or complete cessation of headaches / share of patients with abatement or complete cessation of headaches: of 10 patients
Protocol: The test was carried out under the direct supervision by two of the inventors, namely E. E. Bukatina and V. Grigorieva, in 14 patients who agreed to take part in the tests, 13 of whom lived in a boarding house for senile persons and one patient lived with their family.
Alzheimer's disease was diagnosed on the basis of criteria ICD-10 NINCDS ADRDA.
Dimebon in the form of tablets (comprising 10 mg of dimebon, 30 mg of lactose, 5 mg of magnesium stearate was prescribed for oral administration in a dose of 0.02 g three to times a day. The patients living in the boarding house received dimebon for 58 days. A patient (observation 14) who was under outpatient observation continued taking the agent for a month after the completion of the tests.
Before the treatment with dimebon, and at 4 and 8 weeks after treatment the patients were examined according to Hazegawa's scale and the inventors' scale (“Social and Clinical Psychiatry”, 1992, No.4, pp.29–37) which includes the following indexes: (1) orientation in locality, time, immediate surroundings and one's own personality; (2) orientation in space; (3) memory for the past; (4) memory for the present; (5) “life in the past”; (6) (a) articulation, (b) difficulty in finding words, and distortion of words; (c) naming of objects; (d) following instructions; (7) concentration (of attention); (8) an affective sphere; (a) high spirits, (b) low spirits; (9) delirium; (10) hearing hallucinations; (11) visual hallucinations; (12) senile or senile-like confusion (when motion anxiety is accompanied by the revival of the past experience); (13) irritability; (14) anxiety; (15) asthenia; (16) headaches; (17) dizziness; (18) tearfulness; (19) spontaneous activity; (20) elementary self-service; and (21 control of sphincters.
According to the Hazegawa's scale, the 0 score indicates the poorest result; on the contrary, according to the inventors' scale, the 0 score indicates the absence of a symptom 4 score indicates the greatest manifestation thereof. […] Before the therapy was started, the patients had been independently examined by two doctors who used the inventors' scale. The examination during the treatment was carried out by the doctors using both the scales. The evaluation according to all the inventors' scale points during all the tests and their variations during the treatment with dimebon are given in the Appendix.
According to the inventors' scale, the degree of the disturbance if the cognitive functions was determined by a sum of evaluations according to the first 5 scale points reflecting the condition of memory, orientation and relation with the reality. The disturbance of speech was dealt with separately and was determined by a sum of evaluations according to items 6b-6d.
Both absolute evaluations of the signs under investigation (the evaluation prior to treatment is a mean evaluation of the two examinations) and variations in them were analysed in the course of therapy. In doing so, only those changes that were beyond the range of evaluations obtained in two pre-treatment examinations were taken into consideration.
The test results reflected the condition of the patients at the time of the examination. Any changes in the metal state observed in the interval between the tests and disappearing by the moment of examination according to the scale were described in the section “Clinical Observations”.
The statistical data processing was carried out by means of Student's t-test and Fisher's “Fi” criterion.

[1] = change at 8 weeks vs K1, K2, per patient, listed as dimebon
[2] = marked (by more than 1 score), 8 weeks
[3] = mean of 14 patients, after 4 weeks
[4] = mean of 14 patients, after 8 weeks
[5] = of 11 patients with depressive symptoms prior to treatment, 4 weeks
[6] = of 11 patients with depressive symptoms prior to treatment, 8 weeks
[7] = score after 4 weeks, per patient, listed as dimebon
[8] = score after 8 weeks, per patient, listed as dimebon

## Cc1ccc2c(c1)c1c(n2CCc2ccc(C)nc2)CCN(C)C1 [No. 10, 2,8-dimethyl-5-[2-(6-methyl-3-pyridyl)ethyl]-2,3,4,5-tetrahydro-1H-pyrido[4,3-b]indole]
[1]
  2. Orientation in space, Changes (8 weeks): +1 and +0.5
  4. Memory for the present, Changes (8 weeks): −0.5 (2×) and +1 and +0.5 (4×)
  5. Life in the past, Changes (8 weeks): +0.5 (4×) and +1 (2×)
  6b. Difficulty in finding words, Changes (8 weeks): 0 and −0.5
  6c. Naming of objects, Changes (8 weeks): +0.5 (3×) and +1
  7. Concentration, Changes (8 weeks): −0.5 (2×) and +0.5
  8b. Lower spirits, Changes (8 weeks): +1.5 and +1 (3×) and +2 and −1 and +0.5 and −5
  9. Delirium, Changes (8 weeks): +1.5 and 0 (2×) and +2
  13. Irritability, Changes (8 weeks): +1.5 and +1 (2×) and −1.5 and 0
  14. Anxiety, Changes (8 weeks): +0.5 and +1 and −0.5
  16. Headache, Changes (8 weeks): +0.5 and +2 and +1.5 and −1
  17. Dizziness, Changes (8 weeks): 1 and −2 (2×) and +1 (2×) and −0.5
  18. Tearfulness, Changes (8 weeks): +1 and +2
  19. Spontaneous activity, Changes (8 weeks): +1 and 0 (3×) and −1
  20. Elementary self-service, Changes (8 weeks): +1 and −1
  6d. Performing instructions, Changes (8 weeks): −1.5 and −1 (2×) and +0.5 and +1 (2×) and 0
During treatment
  aggravation or emergence of irritability: Not a single observation
  first emergence of delirium: not a single case
[2]
  Speech functions (items 6b, c, d): deteriorations, %: 2.4%
  Speech functions (items 6b, c, d): deteriorations, abs.: 1
After 4 weeks
  Degree of irritability, M +/− m: 0.43 +/− 0.28 scores
  Values of cognitive functions, M +/− m: 5.5 +/− 0.79 score
  Marked depressive manifestation, M +/− m: 0.69 +/− 0.23 scores
  Intensity of headache, M +/− m: 0.45 +/− 0.29 scores
  number of patients with abatement or complete cessation of headaches: Five
  share of patients with abatement or complete cessation of headaches: 50%
After 8 weeks
  Degree of irritability, M +/− m: 0.29 +/− 5.17 scores
  Values of cognitive functions, M +/− m: 3.93 +/− 0.5 score
  Marked depressive manifestation, M +/− m: 0.69 +/− 0.18 scores
  Intensity of headache, M +/− m: 0.9 +/− 0.31 scores
  number of patients with abatement or complete cessation of headaches: 3 patients
  share of patients with abatement or complete cessation of headaches: 30%
Mean of 7 patients with unprofound (mild) dementia, 4 weeks, listed as Demibon
  Variations of cognitive function, M +/− m: +0.5 +/− 0.14 score
Mean of 7 patients with unprofound (mild) dementia, 4 weeks, listed as dimebon
  Variations of cognitive function, M +/− m: 0.5±0.14 score
Mean of 7 patients with unprofound (mild) dementia, 8 weeks
  Variations of cognitive function, M +/− m: +1.79 +/− 0.35 score
Mean of 14 patients, 4 weeks
  Variations of cognitive function, M +/− m: −0.43 +/− 0.15 score
  Variations of speech function, M +/− m: −0.18 +/− 0.14
Mean of 14 patients, 8 weeks
  Variations of cognitive function, M +/− m: +1.14 +/− 0.26 score
  Variations of speech function, M +/− m: −0.04 +/− 0.22
[3]
  Evaluation of speech function, M +/− m: 1.61 +/− 0.44 scores
  Values of cognitive function (sum of first 5 scale points), M +/− m: 8.32 +/− 0.93 score
[4]
  Evaluation of speech function, M +/− m: 1.39 +/− 0.47 scores
  Values of cognitive function (sum of first 5 scale points), M +/− m: 7.21 +/− 0.82 score
Moderate (by 1 score), 4 weeks
  Cognitive functions (first 5 scale points): improvements, %: 5.7%
  Cognitive functions (first 5 scale points): improvements, abs.: 4
  Speech functions (items 6b, c, d): deteriorations, %: 2.4%
  Speech functions (items 6b, c, d): deteriorations, abs.: 1
  Speech functions (items 6b, c, d): improvements, %: 7.14%
  Speech functions (items 6b, c, d): improvements, abs.: 3
Moderate (by 1 score), 8 weeks
  Cognitive functions (first 5 scale points): improvements, %: 8.6%
  Cognitive functions (first 5 scale points): improvements, abs.: 6
  Speech functions (items 6b, c, d): deteriorations, %: 4.8%
  Speech functions (items 6b, c, d): deteriorations, abs.: 2
  Speech functions (items 6b, c, d): improvements, %: 7.1%
  Speech functions (items 6b, c, d): improvements, abs.: 3
Of 5 patients with tearfulness prior to treatment, after four weeks
  number of patients showing no signs of tearfulness: 4 patients
[5]
  number of patients in whom the depression abated: 5 patients
  share of patients in whom the depression abated: 45%
[6]
  number of patients with improvement of depression: 6 patients
  share of patients with improvement of depression: 55%
[7]
  2. Orientation in space, 4 weeks: 0 (10×) and 1 and 1.5 (2×) and 0.5
  4. Memory for the present, 4 weeks: 1.5 and 2 (4×) and 1 (3×) and 3 (5×) and 3.5
  5. Life in the past, 4 weeks: 1 (2×) and 1.5 (2×) and 0.5 (2×) and 2.5 (3×) and 2 (4×) and 3
  6b. Difficulty in finding words, 4 weeks: 0 (9×) and 1 (2×) and 1.5 and 0.5 and 2
  6c. Naming of objects, 4 weeks: 0 (7×) and 1 (4×) and 2 (3×)
  7. Concentration, 4 weeks: 1.5 (2×) and 0 and 1 (3×) and 3 (4×) and 2 (3×) and 0.5
  8b. Lower spirits, 4 weeks: 1 (4×) and 0 (7×) and 0.5 (2×) and 2
  9. Delirium, 4 weeks: 0 (9×) and 1 (2×) and 2.5 and 1.5 and 2
  13. Irritability, 4 weeks: 0 (12×) and 2 and 1
  14. Anxiety, 4 weeks: 0 (10×) and 1 (4×)
  15. Asthenia, 4 weeks: 0 (11×) and 1 (2×) and 0.5
  16. Headache, 4 weeks: 0.5 and 0 (11×) and 1 and 3
  17. Dizziness, 4 weeks: 0.5 and 0 (8×) and 1 (2×) and 2 and 2.5 and 3
  18. Tearfulness, 4 weeks: 1 and 0 (13×)
  19. Spontaneous activity, 4 weeks: 1.5 and 1 (5×) and 0.5 and 2 (4×) and 0 (2×) and 3
  20. Elementary self-service, 4 weeks: 0 (13×) and 1
  6d. Performing instructions, 4 weeks: 1 (4×) and 0 (8×) and 0.5 and 2
Score after 8 weeks of treatment, per patient, listed as dimebon
  1. Orientation in locality and time, 8 weeks: 2 (4×) and 3 (2×) and 1.5 (2×) and 0 and 0.5 (2×) and 1 (2×)
Score after 8 weeks, per patient
  18. Tearfulness, 8 weeks: 0
[8]
  2. Orientation in space, 8 weeks: 0 (11×) and 1.5 and 1
  4. Memory for the present, 8 weeks: 1 (4×) and 0.5 and 1.5 (2×) and 3 (4×) and 2 (2×) and 2.5
  5. Life in the past, 8 weeks: 0.5 (5×) and 1 (2×) and 3 (3×) and 1.5 and 2.5 (2×) and 2
  6b. Difficulty in finding words, 8 weeks: 0 (11×) and 1.5 and 2 (2×)
  6c. Naming of objects, 8 weeks: 0 (9×) and 1 (2×) and 2 (2×) and 1.5
  7. Concentration, 8 weeks: 1 (5×) and 0 and 3 and 2 (3×) and 3.5 and 2.5 and 4 and 0.5
  8b. Lower spirits, 8 weeks: 0.5 (2×) and 0 (7×) and 1 (4×) and 1.5
  9. Delirium, 8 weeks: 0 (9×) and 1.5 (2×) and 1 (2×) and 2
  13. Irritability, 8 weeks: 0 (12×) and +1 and 1
  14. Anxiety, 8 weeks: 0 (11×) and 1 (2×) and 0.5
  15. Asthenia, 8 weeks: 0 (13×) and 0.5
  16. Headache, 8 weeks: 0 (8×) and 1 (2×) and 2 and 1.5 and 0.5 and 3
  17. Dizziness, 8 weeks: 0 (8×) and 1.5 and 3 and 2 and 1 (3×)
  19. Spontaneous activity, 8 weeks: 1 (7×) and 1.5 and 0 (3×) and 2 (2×) and 4
  20. Elementary self-service, 8 weeks: 0 (13×) and 2
  6d. Performing instructions, 8 weeks: 1 (5×) and 2.5 and 0 (8×)
Slight (by 0.5 score), 4 weeks
  Cognitive functions (first 5 scale points): improvements, %: 5.7* %
  Cognitive functions (first 5 scale points): improvements, abs.: 4*
  Speech functions (items 6b, c, d): improvements, %: 2.4%
  Speech functions (items 6b, c, d): improvements, abs.: 1
Slight (by 0.5 score), 8 weeks
  Cognitive functions (first 5 scale points): improvements, %: 25.7* %
  Cognitive functions (first 5 scale points): improvements, abs.: 18*
  Speech functions (items 6b, c, d): deteriorations, %: 2.4%
  Speech functions (items 6b, c, d): deteriorations, abs.: 1
  Speech functions (items 6b, c, d): improvements, %: 7.14%
  Speech functions (items 6b, c, d): improvements, abs.: 3
total, 4 weeks
  Cognitive functions (first 5 scale points): improvements, %: 11.4%
  Cognitive functions (first 5 scale points): improvements, abs.: 8
  Speech functions (items 6b, c, d): deteriorations, %: 2.4%
  Speech functions (items 6b, c, d): deteriorations, abs.: 1
  Speech functions (items 6b, c, d): improvements, %: 9.5%
  Speech functions (items 6b, c, d): improvements, abs.: 4
total, 8 weeks
  Cognitive functions (first 5 scale points): improvements, %: 34.3%
  Cognitive functions (first 5 scale points): improvements, abs.: 24
  Speech functions (items 6b, c, d): deteriorations, %: 9.6%
  Speech functions (items 6b, c, d): deteriorations, abs.: 4
  Speech functions (items 6b, c, d): improvements, %: 14.3%
  Speech functions (items 6b, c, d): improvements, abs.: 6
Whole period of investigations, all patients
  Item 10. hearing hallucinations: Item 10. No hearing hallucinations were observed throught the whole period of investigations.
